Converted amounts (≈) assume the structure as drawn. Read-outs that look alike come from different tables or passages of the source.
Columns and labels:
[1] = test system: pulmonary hemorrhage induced by human neutrophilic elastase; experiment: Inhibitory activity on pulmonary hemorrhage induced by human neutrophilic elastase in hamsters; settings: hamster
Protocol: When human neutrophilic elastase is administered intratracheally to a hamster, the hemorrhage is induced in the lung. Hemoglobin is detected in the broncho-alveolar lavage fluid, which is obtained by washing the lung via bronchi at a fixed period after the elastase administration. In order to examine how much this hemorrhage can be inhibited by the present compound, this experiment was carried out by measuring the concentration of this hemoglobin.
Hamsters (male Syrian strain, 8-10 weeks old) were grouped into the following three groups (5 animals per group), and the following treatment was carried out on each group.
(A) Vehicle-Treated Control Group (Non-Treatment Group):
The result of the measurement was counted as A.
(B) Human Neutrophilic Elastase-Treated Group (Without the Present Compound):
Human neutrophilc elastase (25 units, manufactured by Elastin Products, Inc.) was dissolved in physiological saline solution (0.2 ml), and the solution thus obtained was administered to the hamsters at the bronchial tube to induce the pulmonary hemorrhage. One hour after the administration of elastase, the concentration of hemoglobin in the broncho-alveolar lavage fluid was measured in the same manner as in Group (A). The result of the measurement was counted as B.
(C) Human Neutrophilic Elastase-Treated Group (with the Present Compound):
A fixed amount of the present compound was administered to the hamsters in the form of a phosphate-buffered saline solution (pH 7.4) in the manner as described below. Then, human neutrophilic elastase was administered to the hamsters in the same manner as the above. One hour after the administration of elastase, the concentration of hemoglobin in the washing of the broncho-alveolar lavage was measured in the same manner as in Group (A). The result of the measurement was counted as C.
Administration Method of the Present Compound:
The administration of the present compound to the hamsters was carried out by two kinds of methods. One of them is a method of intravenous bolus-administration of the solution containing the present compound 5 minutes prior to the elastase administration. Another method is a method of intravenous infusion of the solution containing the present compound for a period of 70 minutes beginning at 10 minutes prior to the elastase administration.

[2] = Solubility in aqueous solvent; type: physicochemical; settings: 25° C.
Protocol: Experiment 4: Solubility in Aqueous Solvent The solubility in an aqueous solvent of the present compound was measured, and the results as shown in Table 4 were obtained. The pH value in Table 4 is a pH value of a solution of the present compound in distilled water.

Std:ddy mice = type: in vivo; settings: intravenous administration 300 mg/kg, 24 hours after administration
From the text: Experiment 3: Acute Toxicity Test in Mice
Twenty-four hours after the administration, the animals were observed if dead or alive.
*: Number of survived animals/number of tested animals

[3] = target: T1, Human neutrophilic elastase (Homo sapiens, UniProt P08246); experiment: Human neutrophilic elastase inhibitory activity in vitro (fluorogenic substrate); type: biochemical; settings: 37° C., pH 7.5
T1 construct: purchased Sigma
T1 sequence (P08246 30-267): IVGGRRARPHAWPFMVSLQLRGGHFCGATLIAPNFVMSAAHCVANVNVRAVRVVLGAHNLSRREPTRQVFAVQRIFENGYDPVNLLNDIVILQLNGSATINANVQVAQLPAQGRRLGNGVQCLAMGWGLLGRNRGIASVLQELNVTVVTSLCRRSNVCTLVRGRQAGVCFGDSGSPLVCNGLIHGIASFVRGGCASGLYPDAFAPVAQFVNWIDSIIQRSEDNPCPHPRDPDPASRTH
Protocol: Experiment 1: Human Neutrophilic Elastase Inhibitory Activity
In the present experiment, the inhibitory activity of the present invention against human neutrophilic elastase was studied in vitro.
The resulting solution (210 μl) was mixed with a 10^−8-10^−5 M solution of the present compound (40 μl), and the mixture was pre-incubated at 37° C. for 6 minutes. To this solution, 4 mM succinyl-alanyl-prolyl-alanine 4-methyl-coumaryl-7-amide (substrate solution, Peptide Institute Inc.) (50 μl) and distilled water (100 μl) were added, and the mixture was further reacted at 37° C. for 20 minutes. The concentration of the 7-amino-4-methylcoumarine thus obtained was measured fluorimetrically by monitoring at an excitation wave length of 380 nm and a fluorescent wave length of 460 nm.
The above “Bri j-35” means polyoxyethylene (23) lauryl ether, and the “HEPES” means N-(2-hydroxyethyl)piperazine-N′-(2-ethane-sulfonic acid).
In the following equation, A means the intensity of fluorescence when a present compound is added, and B means the intensity of fluorescence when a present compound is not added.
Inhibitory Rate (%)=(1−A/B)×100

[4] = distilled water, pH of the solution given beside each value, read-out: Solubility, Water
[5] = aqueous buffer, 0.1 M phosphate buffer pH 7.4, read-out: Solubility, 0.1 M Phosphate buffer (pH 7.4)
[6] = intravenous bolus administration 3 mg/kg, 5 minutes prior to elastase
[7] = intravenous bolus administration 10 mg/kg, 5 minutes prior to elastase
[8] = intravenous infusion 1 mg/kg/hr for 70 minutes
[9] = intravenous infusion 3 mg/kg/hr for 70 minutes
[10] = intravenous infusion 10 mg/kg/hr for 70 minutes

IC50 [3]	SMILES	Hemorrhage inhibitory rate ([1]; intravenous bolus administration 100 mg/kg (control dose row))	Hemorrhage inhibitory rate ([1]; intravenous infusion 10 mg/kg/hr (control dose row))	Hemorrhage inhibitory rate ([1]; intravenous infusion 100 mg/kg/hr (control dose row))	solubility [2, 4]	solubility [2, 5]	Livability (number of survived animals/number of tested animals) (Std:ddy mice)	Hemorrhage inhibitory rate [1, 6]	Hemorrhage inhibitory rate [1, 7]	Hemorrhage inhibitory rate [1, 8]	Hemorrhage inhibitory rate [1, 9]	Hemorrhage inhibitory rate [1, 10]
45 nM	CC(C)[C@H](NC(=O)[C@@H]1CCCN1C(=O)[C@@H](NC(=O)CC(=O)N1CCN(CC(=O)O)C(=O)C1)C(C)C)C(=O)c1nc2ccccc2o1 [I-b-10]	–	–	–	–	–	–	32%	76%	52%	69%	92%
82 nM	CC(C)[C@H](NC(=O)CN1C(=O)CN(CC(=O)O)C1=O)C(=O)N1CCC[C@H]1C(=O)N[C@H](C(=O)C(F)(F)F)C(C)C [I-b-7, 2-(3-carboxymethyl-2,5-dioxo-1-imidazolidinyl)acetyl-L-valyl-N-[(1S)-3,3,3-trifluoro-1-isopropyl-2-oxopropyl]-L-prolinamide]	–	–	–	–	–	–	50%	64%	51%	53%	72%

The remaining lines, values behind:

SMILES	IC50 [3]	Hemorrhage inhibitory rate ([1]; intravenous bolus administration 100 mg/kg (control dose row))	Hemorrhage inhibitory rate ([1]; intravenous infusion 10 mg/kg/hr (control dose row))	Hemorrhage inhibitory rate ([1]; intravenous infusion 100 mg/kg/hr (control dose row))	solubility [2, 4]	solubility [2, 5]	Livability (number of survived animals/number of tested animals) (Std:ddy mice)	Hemorrhage inhibitory rate [1, 6]	Hemorrhage inhibitory rate [1, 7]	Hemorrhage inhibitory rate [1, 8]	Hemorrhage inhibitory rate [1, 9]	Hemorrhage inhibitory rate [1, 10]
CC(C)(C)C(=O)Oc1ccc(S(=O)(=O)Nc2ccccc2C(=O)NCC(=O)O)cc1 [Control (a), reference compound]	–	74%	18%	60%	0.012 mg/mL (≈ 0.0276 mM)	~20 mg/mL (≈ 46 mM)	–	–	–	–	–	–
CC(C)[C@H](NC(=O)[C@@H]1CCCN1C(=O)[C@@H](NC(=O)Cn1ccc(=O)n(CC(=O)O)c1=O)C(C)C)C(=O)c1nc2ccccc2o1 [I-b-2, 2-(3-carboxymethyl-2,4-dioxo-1-pyrimidinyl)acetyl-L-valyl-N-[(1S)-2-(2-benzoxazolyl)-1-isopropyl-2-oxoethyl]-L-prolinamide]	–	–	–	–	5 mg/mL (≈ 8 mM)	> 100 mg/mL	6/6	–	–	–	–	–
CC(C)[C@H](NC(=O)[C@@H]1CCCN1C(=O)[C@@H](NC(=O)Cn1ccc(=O)n(CC(=O)O)c1=O)C(C)C)C(=O)C(=O)NCc1ccccc1 [I-b-3, 2-(3-carboxymethyl-2,4-dioxo-1-pyrimidinyl)acetyl-L-valyl-N-[(1S)-3-benzylamino-1-isopropyl-2,3-dioxopropyl]-L-prolinamide]	–	–	–	–	8.7 mg/mL (≈ 13.6 mM)	> 100 mg/mL	6/6	–	–	–	–	–
CC(C)[C@H](NC(=O)CN1CCN(CC(=O)O)C1=O)C(=O)N1CCC[C@H]1C(=O)N[C@H](C(=O)C(F)(F)F)C(C)C [I-b-1, 2-(3-carboxymethyl-2-oxo-1-imidazolidinyl)acetyl-L-valyl-N-[(1S)-3,3,3-trifluoro-1-isopropyl-2-oxopropyl]-L-prolinamide]	–	–	–	–	> 1000 mg/mL	> 1000 mg/mL	6/6	–	–	–	–	–

Reference: patent publication US6835714B1, “Heterocyclic compounds, intermediates thereof and elastase inhibitors” (Dainippon Pharmaceutical Co., Ltd., priority 1999, dated 2004)
